Measured values published in ChEMBL document CHEMBL4765279, “Discovery of a novel series of imidazo[1',2':1,6]pyrido[2,3-d]pyrimidin derivatives as potent cyclin-dependent kinase 4/6 inhibitors” (Eur J Med Chem, 2020).
Values belong to the molecule of their own block, whether it stands above or below them.

Experiments:
[1] = molecular target: CDK4/Cyclin D3 (Homo sapiens, UniProt P11802); assay: Inhibition of recombinant human full-length N-terminal GST-fused CDK4 (1 to 303 residues)/GST-tagged CyclinD3 (1 to 292 residues) expressed in baculovirus expression system using ULight-elF4E-binding protein 1 peptide as substrate measured after 30 mins by LANCE assay
Chain of CDK4/Cyclin D3 (P11802 whole entry, the tested form may be a part): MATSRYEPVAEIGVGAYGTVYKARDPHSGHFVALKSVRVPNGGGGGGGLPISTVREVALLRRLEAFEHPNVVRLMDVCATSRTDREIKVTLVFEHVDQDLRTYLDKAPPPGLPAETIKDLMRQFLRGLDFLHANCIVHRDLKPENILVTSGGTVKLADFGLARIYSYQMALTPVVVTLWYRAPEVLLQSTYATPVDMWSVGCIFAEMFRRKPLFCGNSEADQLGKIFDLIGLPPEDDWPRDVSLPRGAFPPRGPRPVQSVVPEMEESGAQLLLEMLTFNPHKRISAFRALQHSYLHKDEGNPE
Chain of CDK4/Cyclin D3 (P30281 whole entry, further chain, the tested form may be a part): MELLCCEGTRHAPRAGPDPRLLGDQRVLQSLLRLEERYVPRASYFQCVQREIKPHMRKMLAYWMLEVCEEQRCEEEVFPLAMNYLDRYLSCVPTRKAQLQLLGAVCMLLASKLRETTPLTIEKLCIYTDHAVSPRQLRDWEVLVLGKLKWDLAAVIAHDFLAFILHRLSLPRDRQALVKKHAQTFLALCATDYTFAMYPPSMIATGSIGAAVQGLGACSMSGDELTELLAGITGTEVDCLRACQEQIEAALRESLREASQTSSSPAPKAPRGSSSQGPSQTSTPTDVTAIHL

[2] = molecular target: CDK6/Cyclin D3 (Homo sapiens, UniProt Q00534); assay: Inhibition of human full-length N-terminal GST tagged CDK6 (1 to 326 residues)/GST-tagged cyclinD3 (1 to 292 residues) expressed in baculovirus expression system using ULight-elF4E-binding protein 1 peptide as substrate measured after 30 mins by LANCE assay
Chain of CDK6/Cyclin D3 (Q00534 whole entry, looked up, the tested form may be a part): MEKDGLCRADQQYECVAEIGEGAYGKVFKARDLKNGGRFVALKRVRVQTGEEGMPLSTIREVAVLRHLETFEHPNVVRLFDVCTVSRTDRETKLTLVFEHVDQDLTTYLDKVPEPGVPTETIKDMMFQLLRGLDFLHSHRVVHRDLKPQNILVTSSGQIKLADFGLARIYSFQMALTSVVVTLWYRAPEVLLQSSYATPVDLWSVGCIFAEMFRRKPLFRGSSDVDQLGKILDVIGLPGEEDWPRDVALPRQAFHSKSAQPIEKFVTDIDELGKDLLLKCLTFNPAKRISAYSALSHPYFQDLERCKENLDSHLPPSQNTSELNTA

[3] = test system: COLO 205; assay: Antiproliferative activity against human COLO 205 cells assessed as cell growth inhibition measured after 4 to 6 days by celltiter-glo luminescent cell viability assay; format: functional, cell-based
[4] = test system: U-87 MG; assay: Antiproliferative activity against human U-87 MG cells assessed as cell growth inhibition measured after 4 to 6 days by celltiter-glo luminescent cell viability assay; format: functional, cell-based, U-87MG ATCC
[5] = test system: COLO 205; assay: Cell cycle arrest in human COLO 205 cells assessed as accumulation at G0/G1 phase at 200 nM measured after 24 hrs by propidium iodide staining based flow cytometry relative to control; format: functional
[6] = test system: MDA-MB-468; assay: Antiproliferative activity against human MDA-MB-468 cells assessed as cell growth inhibition measured after 4 to 6 days by celltiter-glo luminescent cell viability assay; format: functional, cell-based
[7] = Intrinsic clearance in human liver microsomes at 1 uM preincubated for 10 mins followed by NADPH addition and measured after 1 hr by LC-MS/MS analysis; format: ADME, Microsome; conditions: time 70 min, read-out: CLH
[8] = Intrinsic clearance in rat liver microsomes at 1 uM preincubated for 10 mins followed by NADPH addition and measured after 1 hr by LC-MS/MS analysis; format: ADME, Microsome; conditions: time 70 min, read-out: CLH
[9] = molecular target: T1, CYP1A2 (Homo sapiens, UniProt P05177); assay: Inhibition of CYP1A2 in human liver microsomes at 10 uM measured after 20 mins in presence of NADPH by LC-MS/MS analysis relative to control; format: ADME
T1 sequence (P05177 whole entry): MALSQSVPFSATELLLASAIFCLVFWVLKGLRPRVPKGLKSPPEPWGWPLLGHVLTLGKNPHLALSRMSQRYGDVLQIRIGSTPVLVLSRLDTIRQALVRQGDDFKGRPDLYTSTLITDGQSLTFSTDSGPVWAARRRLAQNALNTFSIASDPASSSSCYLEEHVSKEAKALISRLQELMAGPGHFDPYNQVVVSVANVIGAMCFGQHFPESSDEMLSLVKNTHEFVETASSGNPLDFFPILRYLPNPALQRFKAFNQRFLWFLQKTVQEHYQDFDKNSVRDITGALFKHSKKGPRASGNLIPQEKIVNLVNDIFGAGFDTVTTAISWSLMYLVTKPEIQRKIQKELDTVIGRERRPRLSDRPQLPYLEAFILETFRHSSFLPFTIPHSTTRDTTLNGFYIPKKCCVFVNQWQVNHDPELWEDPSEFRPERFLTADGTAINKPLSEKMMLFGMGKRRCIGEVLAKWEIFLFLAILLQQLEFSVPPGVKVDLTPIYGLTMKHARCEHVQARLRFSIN

[10] = molecular target: CYP2C9 (Homo sapiens, UniProt P11712); assay: Inhibition of CYP2C9 in human liver microsomes at 10 uM measured after 20 mins in presence of NADPH by LC-MS/MS analysis relative to control; format: ADME
Chain of CYP2C9 (P11712 whole entry): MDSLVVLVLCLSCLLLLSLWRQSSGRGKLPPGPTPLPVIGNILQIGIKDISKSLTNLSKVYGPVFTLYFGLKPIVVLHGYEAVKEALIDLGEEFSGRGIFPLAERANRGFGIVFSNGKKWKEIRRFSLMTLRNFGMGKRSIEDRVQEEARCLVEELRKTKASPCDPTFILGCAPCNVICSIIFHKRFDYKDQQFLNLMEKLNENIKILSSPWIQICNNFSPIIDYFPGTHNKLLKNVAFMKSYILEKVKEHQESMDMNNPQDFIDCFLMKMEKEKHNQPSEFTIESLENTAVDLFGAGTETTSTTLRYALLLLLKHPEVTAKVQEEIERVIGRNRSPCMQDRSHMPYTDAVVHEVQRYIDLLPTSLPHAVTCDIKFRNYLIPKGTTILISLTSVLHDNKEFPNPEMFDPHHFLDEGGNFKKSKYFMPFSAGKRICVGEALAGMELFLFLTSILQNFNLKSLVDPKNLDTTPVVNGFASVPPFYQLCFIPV

[11] = molecular target: CYP2C19 (Homo sapiens, UniProt P33261); assay: Inhibition of CYP2C19 in human liver microsomes at 10 uM measured after 20 mins in presence of NADPH by LC-MS/MS analysis relative to control; format: ADME
Chain of CYP2C19 (P33261 whole entry): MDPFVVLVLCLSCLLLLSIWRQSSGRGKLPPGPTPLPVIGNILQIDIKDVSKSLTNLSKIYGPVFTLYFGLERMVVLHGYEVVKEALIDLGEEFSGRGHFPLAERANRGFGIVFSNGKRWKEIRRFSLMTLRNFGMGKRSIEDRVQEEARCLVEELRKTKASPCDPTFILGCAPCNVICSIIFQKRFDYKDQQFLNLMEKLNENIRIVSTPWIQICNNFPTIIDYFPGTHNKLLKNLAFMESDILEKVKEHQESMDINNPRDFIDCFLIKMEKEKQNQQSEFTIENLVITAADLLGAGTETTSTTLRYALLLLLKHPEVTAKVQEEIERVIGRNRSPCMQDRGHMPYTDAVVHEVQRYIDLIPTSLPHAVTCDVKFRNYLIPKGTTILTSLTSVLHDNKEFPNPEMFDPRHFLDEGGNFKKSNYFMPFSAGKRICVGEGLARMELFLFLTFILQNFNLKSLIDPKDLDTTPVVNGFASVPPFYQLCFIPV

[12] = molecular target: CYP2D6 (Homo sapiens, UniProt P10635); assay: Inhibition of CYP2D6 in human liver microsomes at 10 uM measured after 20 mins in presence of NADPH by LC-MS/MS analysis relative to control; format: ADME
[13] = molecular target: CYP3A4 (Homo sapiens, UniProt P08684); assay: Inhibition of CYP3A4 in human liver microsomes at 10 uM measured after 20 mins in presence of NADPH by LC-MS/MS analysis relative to control; format: ADME
Chain of CYP3A4 (P08684 whole entry): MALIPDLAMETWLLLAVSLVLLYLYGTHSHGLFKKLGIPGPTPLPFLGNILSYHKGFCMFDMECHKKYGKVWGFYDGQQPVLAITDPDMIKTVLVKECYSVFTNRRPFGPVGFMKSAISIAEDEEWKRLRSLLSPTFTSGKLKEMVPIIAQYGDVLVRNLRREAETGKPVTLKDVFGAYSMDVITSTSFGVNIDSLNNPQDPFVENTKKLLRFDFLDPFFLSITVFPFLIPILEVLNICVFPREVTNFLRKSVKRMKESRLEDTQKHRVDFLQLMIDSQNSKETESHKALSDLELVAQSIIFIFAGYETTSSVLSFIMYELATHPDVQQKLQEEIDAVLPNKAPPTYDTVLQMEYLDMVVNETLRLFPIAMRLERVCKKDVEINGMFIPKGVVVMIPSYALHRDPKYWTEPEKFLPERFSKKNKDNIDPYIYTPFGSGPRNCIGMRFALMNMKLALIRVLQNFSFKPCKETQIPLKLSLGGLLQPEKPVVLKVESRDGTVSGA

[14] = molecular target: T2, Cytochrome P450 1A2 (Homo sapiens, UniProt P05177); assay: Time-dependent inhibition of CYP1A2 in human liver microsomes at 10 uM in presence of NADPH by LC-MS/MS analysis; format: ADME
T2 sequence (P05177 whole entry): T1 sequence (P05177 whole entry)

[15] = molecular target: Cytochrome P450 2C9 (Homo sapiens, UniProt P11712); assay: Time-dependent inhibition of CYP2C9 in human liver microsomes at 10 uM in presence of NADPH by LC-MS/MS analysis; format: ADME
Chain of Cytochrome P450 2C9 (P11712 whole entry): as the sequence (P11712 whole entry) above

[16] = molecular target: Cytochrome P450 2C19 (Homo sapiens, UniProt P33261); assay: Time-dependent inhibition of CYP2C19 in human liver microsomes at 10 uM in presence of NADPH by LC-MS/MS analysis; format: ADME
Chain of Cytochrome P450 2C19 (P33261 whole entry): as the sequence (P33261 whole entry) above

[17] = molecular target: Cytochrome P450 2D6 (Homo sapiens, UniProt P10635); assay: Time-dependent inhibition of CYP2D6 in human liver microsomes at 10 uM in presence of NADPH by LC-MS/MS analysis; format: ADME
[18] = molecular target: Cytochrome P450 3A4 (Homo sapiens, UniProt P08684); assay: Time-dependent inhibition of CYP3A4 in human liver microsomes at 10 uM in presence of NADPH by LC-MS/MS analysis; format: ADME
Chain of Cytochrome P450 3A4 (P08684 whole entry): as the sequence (P08684 whole entry) above

[19] = AUC (0 to t) in BALB/c mouse at 3 mg/kg, iv by LC-MS/MS analysis; format: ADME, organism-based; set-up: dose 3 mg/kg; conditions: in vivo
[20] = Half life in BALB/c mouse at 3 mg/kg, iv by LC-MS/MS analysis; format: ADME, organism-based; conditions: in vivo
[21] = Volume of distribution at steady state in BALB/c mouse at 3 mg/kg, iv by LC-MS/MS analysis; format: ADME, organism-based; conditions: in vivo, read-out: Vdss
[22] = Cmax in BALB/c mouse at 10 mg/kg, po by LC-MS/MS analysis; format: ADME, organism-based; set-up: route oral, dose 10 mg/kg; conditions: in vivo
[23] = AUC (0 to t) in BALB/c mouse at 10 mg/kg, po by LC-MS/MS analysis; format: ADME, organism-based; set-up: dose 10 mg/kg; conditions: in vivo
[24] = Half life in BALB/c mouse at 10 mg/kg, po by LC-MS/MS analysis; format: ADME, organism-based; conditions: in vivo
[25] = Oral bioavailability in BALB/c mouse at 10 mg/kg by LC-MS/MS analysis; format: ADME, organism-based; conditions: in vivo
[26] = AUC (0 to t) in Sprague-Dawley rat at 3 mg/kg, iv by LC-MS/MS analysis; format: ADME, organism-based; set-up: dose 3 mg/kg; conditions: in vivo
[27] = Half life in Sprague-Dawley rat at 3 mg/kg, iv by LC-MS/MS analysis; format: ADME, organism-based; conditions: in vivo
[28] = Volume of distribution at steady state in Sprague-Dawley rat at 3 mg/kg, iv by LC-MS/MS analysis; format: ADME, organism-based; conditions: in vivo, read-out: Vdss
[29] = Cmax in Sprague-Dawley rat at 6 mg/kg, po by LC-MS/MS analysis; format: ADME, organism-based; set-up: route oral, dose 6 mg/kg; conditions: in vivo
[30] = AUC (0 to t) in Sprague-Dawley rat at 6 mg/kg, po by LC-MS/MS analysis; format: ADME, organism-based; set-up: dose 6 mg/kg; conditions: in vivo
[31] = Half life in Sprague-Dawley rat at 6 mg/kg, po by LC-MS/MS analysis; format: ADME, organism-based; conditions: in vivo
[32] = Oral bioavailability in Sprague-Dawley rat at 6 mg/kg by LC-MS/MS analysis; format: ADME, organism-based; conditions: in vivo
[33] = test system: U-87 MG; assay: Antitumor activity against human U-87 MG cells xenografted in BALB/c mouse assessed as tumor growth inhibition at 10 mg/kg, po qd for 16 days relative to control; format: functional, U-87MG ATCC; conditions: 384 h, time 16 day, read-out: TGI
[34] = test system: U-87 MG; assay: Antitumor activity against human U-87 MG cells xenografted in BALB/c mouse assessed as tumor growth at 10 mg/kg, po qd for 16 days relative to control; format: functional, U-87MG ATCC; conditions: time 16 day
[35] = Toxicity in human U-87 MG cells xenografted BALB/c mouse assessed as body weight loss at 10 mg/kg, po qd for 16 days relative to control; format: organism-based; conditions: in vivo, 384 h, time 16 day
[36] = molecular target: Cyclin-dependent kinase 7/ cyclin H (Homo sapiens, UniProt P50613); assay: Inhibition of CDK7/cyclin H (unknown origin); format: protein-complex assay
Chain of Cyclin-dependent kinase 7/ cyclin H (P51946 whole entry): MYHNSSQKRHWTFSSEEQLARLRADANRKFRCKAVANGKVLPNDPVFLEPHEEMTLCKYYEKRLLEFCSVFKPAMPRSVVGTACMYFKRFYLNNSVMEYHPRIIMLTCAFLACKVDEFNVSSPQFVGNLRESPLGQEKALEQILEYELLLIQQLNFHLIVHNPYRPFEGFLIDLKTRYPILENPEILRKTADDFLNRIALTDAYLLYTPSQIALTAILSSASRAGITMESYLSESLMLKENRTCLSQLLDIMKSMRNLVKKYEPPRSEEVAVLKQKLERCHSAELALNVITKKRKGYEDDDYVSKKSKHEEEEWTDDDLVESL
Chain of Cyclin-dependent kinase 7/ cyclin H (P50613 whole entry): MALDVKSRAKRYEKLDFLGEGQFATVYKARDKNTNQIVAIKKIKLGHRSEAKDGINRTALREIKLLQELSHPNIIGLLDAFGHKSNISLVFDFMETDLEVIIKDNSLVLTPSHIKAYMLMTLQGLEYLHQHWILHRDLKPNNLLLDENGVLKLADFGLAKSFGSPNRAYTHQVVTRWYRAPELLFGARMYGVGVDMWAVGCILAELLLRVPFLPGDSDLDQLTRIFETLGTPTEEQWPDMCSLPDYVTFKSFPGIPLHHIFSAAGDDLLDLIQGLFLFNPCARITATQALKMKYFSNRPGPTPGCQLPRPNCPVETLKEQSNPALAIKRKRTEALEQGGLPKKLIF

[37] = molecular target: CDK9/cyclin T1 (Homo sapiens, UniProt P50750)
Description: Inhibition of CDK9/cyclin T1 (unknown origin)

[38] = molecular target: Cyclin-dependent kinase 1/cyclin B1 (Homo sapiens, UniProt P06493)
Chain of Cyclin-dependent kinase 1/cyclin B1 (P06493 whole entry): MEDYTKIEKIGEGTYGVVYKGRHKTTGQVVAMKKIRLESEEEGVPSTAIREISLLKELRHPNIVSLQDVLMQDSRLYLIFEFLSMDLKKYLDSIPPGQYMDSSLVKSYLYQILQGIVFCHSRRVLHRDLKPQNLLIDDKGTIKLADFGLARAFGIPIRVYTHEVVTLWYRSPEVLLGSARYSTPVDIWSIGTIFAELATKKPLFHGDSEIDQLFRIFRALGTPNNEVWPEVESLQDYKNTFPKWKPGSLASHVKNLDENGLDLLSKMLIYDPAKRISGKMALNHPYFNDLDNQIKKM
Chain of Cyclin-dependent kinase 1/cyclin B1 (P14635 whole entry, further chain): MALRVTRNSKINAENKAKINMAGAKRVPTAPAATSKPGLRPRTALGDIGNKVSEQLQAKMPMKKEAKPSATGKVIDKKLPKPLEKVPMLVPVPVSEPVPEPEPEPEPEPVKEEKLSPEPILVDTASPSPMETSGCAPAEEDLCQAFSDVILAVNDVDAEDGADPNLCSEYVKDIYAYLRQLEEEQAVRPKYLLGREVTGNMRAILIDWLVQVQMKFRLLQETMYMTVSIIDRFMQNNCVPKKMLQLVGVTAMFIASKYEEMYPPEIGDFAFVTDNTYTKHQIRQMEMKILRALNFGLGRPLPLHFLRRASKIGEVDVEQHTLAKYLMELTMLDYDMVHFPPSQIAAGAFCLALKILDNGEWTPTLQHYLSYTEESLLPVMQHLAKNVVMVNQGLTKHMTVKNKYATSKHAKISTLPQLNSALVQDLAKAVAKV
Description: Inhibition of CDK1/cyclin B (unknown origin)

[39] = molecular target: CDK2/Cyclin A2 (Homo sapiens, UniProt P24941)
Description: Inhibition of CDK2/cyclin A2 (unknown origin)

IC50 [1]: > 3330 nM | IC50 [2]: 924 nM
SMILES: Cc1cn2c(n1)c(C#N)c(C)c1cnc(Nc3ccc(Br)cc3)nc12

IC50 [1]: 5.3 nM | IC50 [2]: 5.6 nM | IC50 [3]: 932 nM | IC50 [4]: 380 nM
SMILES: CC(=O)c1c(C)c2cnc(Nc3ccc(C(=O)N4CCNCC4)cn3)nc2n2cc(C(C)C)nc12

IC50 [1]: 123 nM | IC50 [2]: 110 nM
SMILES: Cc1cn2c(n1)c(C#N)c(C)c1cnc(Nc3ccc(N4CCOCC4)cc3)nc12

IC50 [1]: 98.9 nM | IC50 [2]: 112 nM
SMILES: Cc1cn2c(n1)c(C#N)c(C)c1cnc(Nc3ccccc3)nc12

IC50 [1]: 3.7 nM | IC50 [2]: 3.7 nM | IC50 [3]: 290 nM | IC50 [4]: 291 nM
SMILES: CC(=O)c1c(C)c2cnc(Nc3ccc(N4CCNCC4)cn3)nc2n2cc(C(C)C)nc12

IC50 [1]: 2.7 nM | IC50 [2]: 4.8 nM | IC50 [3]: 256 nM | IC50 [4]: 49.3 nM | IC50 [6]: 984 nM | microsomal CLint at 1 µM [7]: 6 µL/min/mg | microsomal CLint at 1 µM [8]: 6 µL/min/mg | inhibition at […], 10 µM [9]: 17% | inhibition at […], 10 µM [10]: 12% | inhibition at […], 10 µM [11]: 19% | inhibition at […], 10 µM [12]: 7% | inhibition at […], 10 µM [13]: 18% | TDI [14]: Active | TDI [15]: Not Active | TDI [16]: Not Active | TDI [17]: Not Active | TDI [18]: Not Active | AUCt [19]: 440 ng·h/mL | half-life [20]: 278 min | Vd [21]: 33.7 L/kg | Cmax [22]: 570 ng/mL | AUC(0-t) [23]: 775 ng·h/mL | half-life [24]: 221 min | bioavailability [25]: 53.1% | AUCt [26]: 1334 ng·h/mL | half-life [27]: 334 min | Vd [28]: 35.7 L/kg | Cmax [29]: 170 ng/mL | AUC(0-t) [30]: 1780 ng·h/mL | half-life [31]: 266 min | bioavailability [32]: 66.9% | IC50 [36]: 204 nM | IC50 [37]: 221 nM | IC50 [38]: 2080 nM | IC50 [39]: 60.3 nM
SMILES: CC(=O)c1c(C)c2cnc(Nc3ccc(N4CCNCC4)cc3)nc2n2cc(C(C)(C)C)nc12
Activity [5]: 95.4% | inhibition in vivo at 10 mg/kg [33]: 70% | T/C [34]: 37% | Activity [35]: < 20%

IC50 [1]: 9.9 nM | IC50 [2]: 23.1 nM | IC50 [3]: 5740 nM | IC50 [4]: 3720 nM
SMILES: CC(=O)c1c(C)c2cnc(Nc3ccc4c(n3)CCNC4)nc2n2cc(C(C)C)nc12

IC50 [1]: 10.3 nM | IC50 [2]: 9 nM | IC50 [4]: 585 nM
SMILES: Cc1c(C#N)c2nc(C(C)C)cn2c2nc(Nc3ccc(N4CCNCC4)cc3)ncc12

IC50 [1]: 4.5 nM | IC50 [2]: 4.3 nM | IC50 [3]: 1420 nM | IC50 [4]: 536 nM
SMILES: CC(=O)c1c(C)c2cnc(Nc3ccc(N4CCC(N(C)C)C4)cn3)nc2n2cc(C(C)C)nc12 (stereo not drawn)

IC50 [1]: 9.9 nM | IC50 [2]: 25.7 nM | IC50 [3]: 534 nM | IC50 [4]: 539 nM
SMILES: CC(=O)c1c(C)c2cnc(Nc3ccc(N4CC5(CCOCC5)C4)cn3)nc2n2cc(C(C)C)nc12

IC50 [1]: 2.7 nM | IC50 [2]: 7.1 nM | IC50 [3]: 639 nM | IC50 [4]: 184 nM
SMILES: CNCCN1CCc2nc(Nc3ncc4c(C)c(C(C)=O)c5nc(C(C)C)cn5c4n3)ccc2C1

IC50 [6]: 1140 nM
SMILES: CCN1CCN(Cc2ccc(Nc3ncc(F)c(-c4cc(F)c5nc(C)n(C(C)C)c5c4)n3)nc2)CC1 [ABEMACICLIB]
Activity [5]: 95.3%

IC50 [1]: 22.3 nM | IC50 [2]: 86.6 nM | IC50 [3]: 2840 nM | IC50 [4]: > 10000 nM
SMILES: CCOC(=O)c1cn2c(n1)c(C(C)=O)c(C)c1cnc(Nc3ccc(N4CCNCC4)cc3)nc12
